Series [1] in a line: Relaxivity in Water and Plasma. In kind it is physicochemical. Particulars: 20 MHz, 37° C; for relaxivity r1 (plasma): in plasma; for relaxivity r1 (H2O): in water. Here is the method: Relaxivity values (mM^-1 s^-1) have been determined in water and in plasma at 20 MHz and 37° C.
For series [2], the system named is mice. Nature of the series: Toxicity Studies in Mice, LD50 i.v. In kind it is in vivo. From the text: The LD50 value of the tris(ligand) iron(III) complex of ligand IX, Fe-DIOLMAL, has been determined i.v. in mice and found to be ca. 20.0 mmol/kg bw.
Series [3] relates to mice. Particulars: metal chloride salts in aqueous solution, i.p.; cited from earlier work.

Read-outs that look alike come from different tables or passages of the source.

With `Cc1c([O-])c(=O)ccn1CCC(=O)O.Cc1c([O-])c(=O)ccn1CCC(=O)O.Cc1c([O-])c(=O)ccn1CCC(=O)O.[Fe+3]` [Fe-BETALA], in series [1], the “relaxivity r1 (plasma)” value was 2.1 mM⁻¹ s⁻¹ and the “relaxivity r1 (H2O)” value was 1.8 mM⁻¹ s⁻¹. In general, LD50 refers to the dose at which mortality reaches 50%. Regarding `Cc1c([O-])c(=O)ccn1CCO.Cc1c([O-])c(=O)ccn1CCO.Cc1c([O-])c(=O)ccn1CCO.[Fe+3]` [Fe-ETOHMAL], the LD50 entry with mice [2] is “ca. 7.5 mmol/kg bw”. In series [1], the “relaxivity r1 (plasma)” value turned out to be 2.0 mM⁻¹ s⁻¹ and the “relaxivity r1 (H2O)” value stood at 1.7 mM⁻¹ s⁻¹. For `[Gd]` [gadolinium], the 50% lethal dose (LD50) with mice [3] is reported as 1.4 mmol/kg. For `[Mn+2]` [manganese], in the series on mice [3], the 50% lethal dose (LD50) was 1.5 mmol/kg. Consider iron, for which, in the series on mice [3], the median lethal dose (LD50) is 1.6 mmol/kg.

The values above are taken from patent US6294152A, “Iron(III) complexes as contrast agents for image enhancement in magnetic resonance imaging” (The University of Toledo, priority 1999, dated 2001).
